CN1COCN(Cc2cnc(Cl)s2)C1=N[N+](=O)[O-]
solubility (mole fraction)
Settings | 278.15 K | 283.15 K | 288.15 K | 293.15 K | 298.15 K | 303.15 K | 308.15 K | 313.15 K | 318.15 K | 323.15 K
in DMF | 0.059 | 0.0658 | 0.0738 | 0.0816 | 0.0892 | 0.0985 | 0.11 | 0.123 | 0.137 | 0.152
in NMP | 0.0818 | 0.0882 | 0.0952 | 0.102 | 0.111 | 0.119 | 0.128 | 0.138 | 0.149 | 0.161
in acetone | 0.00632 | 0.00763 | 0.00888 | 0.0101 | 0.0121 | 0.014 | 0.0164 | 0.0194 | 0.023 | 0.0268
in dichloromethane | 0.0126 | 0.0152 | 0.0174 | 0.0197 | 0.0222 | 0.0249 | 0.0277 | 0.0306 | – | –
in ethyl acetate | 0.00099 | 0.00125 | 0.00155 | 0.00183 | 0.0022 | 0.00257 | 0.00295 | 0.00339 | 0.00384 | 0.00429
in methyl acetate | 0.00283 | 0.00331 | 0.00382 | 0.00446 | 0.00511 | 0.00597 | 0.00708 | 0.00825 | 0.0096 | 0.0114

Source: BigSolDB 2.1
